Our source for the Activity and Ratio IC50 values is ChEMBL document CHEMBL3351369, “Phenylpropanoid acid esters from Korean propolis and their antioxidant activities” (Bioorg Med Chem Lett, 2014).

Data set [1] can be described thus: Antioxidant activity assessed as ABTS radical scavenging activity up to 1 mM after 12 hrs by spectrophotometry. It is filed as physicochemical.
The nature of data set [2]: Antioxidant activity assessed as DPPH radical scavenging activity up to 1 mM after 30 mins by spectrophotometry. It is filed as physicochemical. The following applies: 0.5 h.
A short description of data set [3]: Ratio of compound IC50 to trolox IC50 for ABTS radical scavenging activity after 12 hrs by spectrophotometry.
Data set [4] in a line: Ratio of compound IC50 to trolox IC50 for DPPH radical scavenging activity after 30 mins by spectrophotometry. For orientation: The DPPH test is a chemical assay of radical scavenging.
Data set [5] is described as follows: Antioxidant activity assessed as ABTS radical scavenging activity after 12 hrs by spectrophotometry. Format: physicochemical.
Data set [6] in a line: Antioxidant activity assessed as DPPH radical scavenging activity after 30 mins by spectrophotometry. It is filed as physicochemical. The note with it: 0.5 h.
The nature of data set [7]: Antioxidant activity assessed as hydroxyl radical scavenging activity at 50 uM after 30 mins by Fenton reaction-induced DNA single strand breakage method. The following applies: 0.5 h. Format: physicochemical.

With `O=C(/C=C/c1ccc(O)cc1)OCc1ccccc1`, the Activity result in data set [1] and in data set [2] was “Not Active” throughout. The Ratio IC50 in data set [3] and in data set [4] was > 500 in each case.

Turning to `O=C(/C=C/c1ccccc1)OC/C=C/c1ccccc1`, the Activity result in data set [1] and in data set [2] was “Not Active” throughout. Further, the Ratio IC50 in data set [3] and in data set [4] was > 500 in each case.

On to `COc1cc(/C=C/C(=O)OCC=C(C)C)ccc1O`, for which the Activity result is on record as “Dose-dependent effect” in data set [5], “Dose-dependent effect” in data set [6] and “Not Active” in data set [7]. Moreover, the results for the Ratio IC50 in data set [3] and in data set [4] were 23.1 and 105, respectively.

As for `O=C(/C=C/c1ccc(O)cc1)OC/C=C/c1ccccc1`, the Activity result in data set [1] and in data set [2] was “Not Active” each time. Besides, the Ratio IC50 in data set [3] and in data set [4] was > 500 in each case.

Turning to `COc1ccc(/C=C/C(=O)OC/C=C/c2ccccc2)cc1OC`, the Ratio IC50 in data set [3] and in data set [4] was > 500 throughout.

For `Cc1c(C)c2c(c(C)c1O)CCC(C)(C(=O)O)O2` (stereo not given), the Ratio IC50 in data set [3] and in data set [4] was 1 in each case.

On to `O=C(/C=C/c1ccc(O)c(O)c1)OCc1ccccc1` [BENZYL CAFFEATE], for which the Activity result is listed as “Dose-dependent effect” in data set [5], “Dose-dependent effect” in data set [6] and “Active” in data set [7]. Besides, the Ratio IC50 in data set [3] came out at 3.42; in data set [4], 3.86.

`COc1cc(/C=C/C(=O)OCc2ccccc2)ccc1O` [BENZYL FERULATE]: the Activity entry in data set [5] is recorded as “Dose-dependent effect”; in data set [6] it was “Dose-dependent effect”; in data set [7], “Not Active”. In addition, the results for the Ratio IC50 in data set [3] and in data set [4] were 24.8 and 92.1, respectively.

Turning to `O=C(/C=C/c1ccc(O)c(O)c1)OCCc1ccccc1` [CAFFEIC ACID PHENETHYL ESTER], the Activity entry in data set [5] is “Dose-dependent effect”; in data set [6], “Dose-dependent effect”; in data set [7] it was “Active”. For the same molecule, the values for the Ratio IC50 in data set [3] and in data set [4] were 6.3 and 0.46, respectively.

Consider `CCOC(=O)/C=C/c1ccc(O)c(O)c1` [ETHYL CAFFEATE], for which the Activity result in data set [5] is given as “Dose-dependent effect”; in data set [6], “Dose-dependent effect”; in data set [7], “Active”. Moreover, the values for the Ratio IC50 in data set [3] and in data set [4] were 10.6 and 6.3, respectively.

Take `O=C(/C=C/c1ccccc1)OCCc1ccccc1` [PHENETHYL CINNAMATE]: the Activity entry in data set [1] and in data set [2] was “Not Active” each time. In addition, the Ratio IC50 in data set [3] and in data set [4] was > 500 throughout.
